Key:
[1] = test system: wheat; assay: Test A preemergence; format: in vivo, Triticum aestivum; conditions: preemergence
How it was run: (§1)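 Scoring was visual, on a scale where 100 means complete control and 0 means no effect, comparing treated with untreated plants around 10 days post-application. Compounds in surfactant-containing non-phytotoxic solvent were sprayed onto soil preemergence or onto one- to two-leaf seedlings (2–10 cm) postemergence.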

[2] = test system: pigweed; assay: Test A postemergence; format: in vivo, Amaranthus retroflexus
How it was run: as §1

[3] = test system: ducksalad; assay: Test B flood; format: in vivo, Heteranthera limosa; conditions: 250 g ai/ha, visual rating on 0 to 100 scale (0 no effect, 100 complete control), 13 to 15 days
How it was run: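 Plants were grown to the 2-leaf stage and pots flooded to 3 cm above soil. Compounds were applied directly into the paddy water, with depth kept for the test. After 13–15 days in greenhouse, response was rated visually against controls on a 0 (no effect) to 100 (complete control) scale.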

[4] = test system: ryegrass, Italian; assay: Test C preemergence; format: in vivo, Lolium multiflorum; conditions: for Plant response rating (scale of 0 to 100), Ryegrass, Italian: Preemergence, 250 g ai/ha
How it was run: (§2)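 Greenhouse pot test: preemergence application onto freshly seeded loam/sand mix, postemergence application onto seedlings (1–4 leaves, 2–18 cm) in peat-vermiculite substrate. Responses scored visually 13 to 15 days later relative to controls, where 0 means no effect and 100 means complete control; a dash indicates no result.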

[5] = test system: crabgrass, large; assay: Test C preemergence; format: in vivo, Digitaria sanguinalis; conditions: for Plant response rating (scale of 0 to 100), Crabgrass, Large: Preemergence, 250 g ai/ha
How it was run: as §2

[6] = test system: foxtail, giant; assay: Test C preemergence; format: in vivo, Setaria faberii; conditions: for Plant response rating (scale of 0 to 100), Foxtail, Giant: Preemergence, 250 g ai/ha
How it was run: as §2

[7] = test system: nutsedge, yellow; assay: Test C preemergence; format: in vivo, Cyperus esculentus; conditions: for Plant response rating (scale of 0 to 100), Nutsedge, Yellow: Preemergence, 250 g ai/ha
How it was run: as §2

[8] = test system: ragweed; assay: Test C preemergence; format: in vivo, Ambrosia elation; conditions: for Plant response rating (scale of 0 to 100), Ragweed: Preemergence, 250 g ai/ha
How it was run: as §2

[9] = test system: waterhemp; assay: Test C preemergence; format: in vivo, Amaranthus rudis; conditions: for Plant response rating (scale of 0 to 100), Waterhemp: Preemergence, 250 g ai/ha
How it was run: as §2

[10] = test system: ryegrass, Italian; assay: Test C postemergence; format: in vivo, Lolium multiflorum; conditions: for Plant response rating (scale of 0 to 100 where 0 is no effect and 100 is complete control), Ryegrass, Italian: Postemergence, 31 g ai/ha, visually evaluated after 13 to 15 days; for Ryegrass, Italian plant response rating / Plant response rating, Ryegrass, Italian: postemergence; for Ryegrass, Italian plant response rating: 62 g ai/ha, scale 0 to 100
How it was run: as §2

[11] = test system: corn; assay: Test C postemergence; format: in vivo, Zea mays; conditions: for Plant response rating (scale of 0 to 100 where 0 is no effect and 100 is complete control), Corn: Postemergence, 31 g ai/ha, visually evaluated after 13 to 15 days; for Corn plant response rating / Plant response rating, Corn: postemergence; for Corn plant response rating: 62 g ai/ha, scale 0 to 100
How it was run: as §2

[12] = test system: lambsquarters; assay: Test C postemergence; format: in vivo, Chenopodium album; conditions: for Plant response rating (scale of 0 to 100 where 0 is no effect and 100 is complete control), Lambsquarters: Postemergence, 31 g ai/ha, visually evaluated after 13 to 15 days; for Lambsquarters plant response rating / Plant response rating, Lambsquarters: postemergence; for Lambsquarters plant response rating: 62 g ai/ha, scale 0 to 100
How it was run: as §2

[13] = test system: waterhemp; assay: Test C postemergence; format: in vivo, Amaranthus rudis; conditions: for Plant response rating (scale of 0 to 100 where 0 is no effect and 100 is complete control), Waterhemp: Postemergence, 31 g ai/ha, visually evaluated after 13 to 15 days; for Waterhemp plant response rating / Plant response rating, Waterhemp: postemergence; for Waterhemp plant response rating: 62 g ai/ha, scale 0 to 100
How it was run: as §2

[14] = postemergence, 125 g ai/ha, about 10 days, visual rating on 0 to 100 scale (0 no effect, 100 complete control)
[15] = preemergence, 31 g ai/ha, visual rating, scale 0 to 100 (0 no effect, 100 complete control), 13 to 15 days
[16] = preemergence, 62 g ai/ha, scale 0 to 100 (0 no effect, 100 complete control), 13 to 15 days
[17] = preemergence, 125 g ai/ha, scale 0 to 100, 0 is no effect, 100 is complete control
[18] = 250 g ai/ha, scale 0 to 100 (0 no effect, 100 complete control)
[19] = 125 g ai/ha, scale 0 to 100, 0 no effect, 100 complete control
[20] = preemergence, 125 g ai/ha, 13 to 15 days, scale 0 to 100, 0 = no effect, 100 = complete control

CCc1cc(C(=O)NCC(F)(F)F)nn1Cc1nc(C(F)(F)F)nn1C [Compound 107]
10: Wheat plant response rating ([1]; 125 g ai/ha, visual injury, 0 to 100 scale, approx. 10 days) | Ryegrass, Italian plant response rating [4, 15]
0: Plant response rating (scale of 0 to 100 where 0 is no effect and 100 is complete control), Ryegrass, Italian [10]
85: Nutsedge, Yellow plant response rating [7, 17]
98: Plant response rating (scale of 0 to 100), Crabgrass, Large [5] | Crabgrass, Large plant response rating [5, 15] | Crabgrass, Large plant response rating [5, 16] | Crabgrass, Large plant response rating [5, 17] | Ragweed plant response rating [8, 16]
100: Pigweed plant response rating ([2]; Postemergence, 500 g ai/ha, visual rating after approx. 10 days, 0 to 100 scale (0 no effect, 100 complete control)) | Pigweed plant response rating [2, 14] | Plant response rating (scale of 0 to 100), Ryegrass, Italian [4] | Plant response rating (scale of 0 to 100), Foxtail, Giant [6] | Foxtail, Giant plant response rating [6, 15] | Foxtail, Giant plant response rating [6, 16] | Foxtail, Giant plant response rating [6, 17] | Plant response rating (scale of 0 to 100), Nutsedge, Yellow [7] | Plant response rating (scale of 0 to 100), Ragweed [8] | Ragweed plant response rating [8, 17] | Plant response rating (scale of 0 to 100), Waterhemp [9] | Waterhemp plant response rating [9, 15] | Waterhemp plant response rating [9, 16] | Waterhemp plant response rating [9, 17]
15: Nutsedge, Yellow plant response rating [7, 15]
80: Plant response rating, Waterhemp [13, 18]
70: Plant response rating, Ducksalad [3] | Plant response rating, Lambsquarters [12, 19]
60: Ryegrass, Italian plant response rating [4, 16] | Ryegrass, Italian plant response rating [4, 17] | Nutsedge, Yellow plant response rating [7, 16]
90: Wheat plant response rating ([1]; 500 g ai/ha, visual injury after approx. 10 days, 0 to 100 scale (0 no effect, 100 complete control)) | Plant response rating, Lambsquarters [12, 18]
50: Ragweed plant response rating [8, 15]
5: Ryegrass, Italian plant response rating [10] | Plant response rating, Ryegrass, Italian [10, 18] | Plant response rating, Ryegrass, Italian [10, 19] | Plant response rating (scale of 0 to 100 where 0 is no effect and 100 is complete control), Corn [11] | Corn plant response rating [11] | Plant response rating, Corn [11, 19] | Plant response rating (scale of 0 to 100 where 0 is no effect and 100 is complete control), Waterhemp [13]
40: Plant response rating, Corn [11, 18] | Plant response rating (scale of 0 to 100 where 0 is no effect and 100 is complete control), Lambsquarters [12] | Lambsquarters plant response rating [12] | Waterhemp plant response rating [13] | Plant response rating, Waterhemp [13, 19]

CCOc1cc(C(=O)NCC(F)(F)F)nn1Cc1ccnc(OC(F)F)c1 [Compound 128]
5: Ryegrass, Italian plant response rating [4, 15] | Plant response rating (scale of 0 to 100 where 0 is no effect and 100 is complete control), Ryegrass, Italian [10] | Plant response rating (scale of 0 to 100 where 0 is no effect and 100 is complete control), Corn [11] | Corn plant response rating [11]
100: Pigweed plant response rating ([2]; Postemergence, 500 g ai/ha, 0 to 100 scale (0 no effect, 100 complete control)) | Pigweed plant response rating [2, 14] | Plant response rating (scale of 0 to 100), Crabgrass, Large [5] | Crabgrass, Large plant response rating [5, 15] | Plant response rating, Crabgrass, Large [5, 20] | Plant response rating (scale of 0 to 100), Foxtail, Giant [6] | Foxtail, Giant plant response rating [6, 16] | Plant response rating, Foxtail, Giant [6, 20] | Plant response rating (scale of 0 to 100), Waterhemp [9] | Waterhemp plant response rating [9, 15] | Waterhemp plant response rating [9, 16] | Plant response rating, Waterhemp [9, 20]
30: Plant response rating, Ryegrass, Italian [10, 18] | Plant response rating, Corn [11, 18]
98: Foxtail, Giant plant response rating [6, 15] | Plant response rating, Lambsquarters [12, 18]
65: Ragweed plant response rating [8, 16] | Waterhemp plant response rating [13]
75: Nutsedge, Yellow plant response rating [7, 16]
85: Plant response rating, Ragweed [8, 20]
25: Ragweed plant response rating [8, 15]
70: Ryegrass, Italian plant response rating [4, 16] | Plant response rating, Waterhemp [13, 19]
45: Nutsedge, Yellow plant response rating [7, 15]
80: Plant response rating, Nutsedge, Yellow [7, 20] | Lambsquarters plant response rating [12]
60: Plant response rating (scale of 0 to 100 where 0 is no effect and 100 is complete control), Lambsquarters [12] | Plant response rating (scale of 0 to 100 where 0 is no effect and 100 is complete control), Waterhemp [13]
10: Ryegrass, Italian plant response rating [10] | Plant response rating, Corn [11, 19]
15: Plant response rating, Ryegrass, Italian [10, 19]
95: Plant response rating, Ducksalad [3] | Plant response rating (scale of 0 to 100), Ryegrass, Italian [4] | Crabgrass, Large plant response rating [5, 16] | Plant response rating, Lambsquarters [12, 19] | Plant response rating, Waterhemp [13, 18]
90: Plant response rating, Ryegrass, Italian [4, 20] | Plant response rating (scale of 0 to 100), Nutsedge, Yellow [7] | Plant response rating (scale of 0 to 100), Ragweed [8]
